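Grown in 96-well plates, cells were treated for 48 hours with each compound at five concentrations. Insufficient inhibition: endpoint recorded as highest concentration tested. GI50: concentration for 50% inhibition of growth. The concentration for full growth arrest is given as TGI.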
Assays:
Assay in all cases: DTP human tumour cell line panel, 48 h
[1] = system: HT29 colon
[2] = system: U251 CNS
[3] = system: MDA-MB-231 breast
[4] = system: LOX IMVI melanoma
[5] = system: OVCAR-3 ovarian
[6] = system: KM12 colon
[7] = system: M14 melanoma
[8] = system: SN12C renal
[9] = system: SR leukemia
[10] = system: SK-MEL-2 melanoma
[11] = system: HCT-116 colon
[12] = system: A498 renal
[13] = system: NCI-H460 lung
[14] = system: A549 NSCLC
[15] = system: COLO 205 colon
[16] = system: HOP-62 NSCLC
[17] = system: HCT-15 colon
[18] = system: T-47D breast
[19] = system: UO-31 renal
[20] = system: HOP-92 NSCLC
[21] = system: SF-539 CNS
[22] = system: MOLT-4 leukemia
[23] = system: BT-549 breast
[24] = system: NCI-H522 lung
[25] = system: MDA-MB-435
[26] = system: NCI/ADR-RES ovarian
[27] = system: CCRF-CEM leukemia
[28] = system: CAKI-1 renal
[29] = system: 786-0 renal
[30] = system: OVCAR-5 ovarian
[31] = system: RPMI-8226 leukemia
[32] = system: K-562 leukemia
[33] = system: DU-145 prostate
[34] = system: MCF7 breast
[35] = system: TK-10 renal
[36] = system: SNB-75 CNS
[37] = system: SNB-19 CNS
[38] = system: SW-620 colon
[39] = system: HL-60(TB) leukemia
[40] = system: RXF 393 renal
[41] = system: NCI-H226 lung
[42] = system: OVCAR-4 ovarian
[43] = system: SK-MEL-28 melanoma
[44] = system: SF-268 CNS
[45] = system: SK-OV-3 ovarian
[46] = system: NCI-H23 lung
[47] = system: HCC-2998 colon
[48] = system: UACC-257 melanoma
[49] = system: MALME-3M melanoma
[50] = system: PC-3 prostate
[51] = system: ACHN renal
[52] = system: IGROV1 ovarian
[53] = system: OVCAR-8 ovarian
[54] = system: HS 578T breast
[55] = system: UACC-62 melanoma
[56] = system: SK-MEL-5 melanoma
[57] = system: SF-295 CNS

## COc1cc(N2CCC(N3CCN(C)CC3)CC2)ccc1Nc1ncnc(Nc2ccccc2S(=O)(=O)C(C)C)n1
[1]
  GI50: 1.93 µM
  TGI: 7.25 µM
[2]
  GI50: 4.34 µM
  TGI: 19.1 µM
[3]
  GI50: 3.31 µM
  TGI: 18.5 µM
[4]
  GI50: 2.28 µM
  TGI: 7.62 µM
[5]
  GI50: 7.33 µM
  TGI: 28.1 µM
[6]
  GI50: 6.76 µM
  TGI: 27.6 µM
[7]
  GI50: 4.07 µM
  TGI: 16.6 µM
[8]
  GI50: 2.89 µM
  TGI: 29.8 µM
[9]
  GI50: 0.104 µM
  TGI: 18.7 µM
[10]
  GI50: 5.83 µM
  TGI: 16.3 µM
[11]
  GI50: 4.94 µM
  TGI: 22.7 µM
[12]
  GI50: 2.3 µM
  TGI: 17.2 µM
[13]
  GI50: 7.24 µM
  TGI: 25.6 µM
[14]
  GI50: 3.17 µM
  TGI: 14.9 µM
[15]
  GI50: 3.21 µM
  TGI: 11.1 µM
[16]
  GI50: 2.29 µM
  TGI: 11.1 µM
[17]
  GI50: 3.5 µM
  TGI: > 46.5 µM
[18]
  GI50: 5.18 µM
  TGI: 39.9 µM
[19]
  GI50: 2.62 µM
  TGI: 12.6 µM
[20]
  GI50: 0.467 µM
  TGI: 2.03 µM
[21]
  GI50: 3.46 µM
  TGI: 14.6 µM
[22]
  GI50: 5.07 µM
  TGI: > 64.8 µM
[23]
  GI50: 18.4 µM
  TGI: 44.7 µM
[24]
  GI50: 4.65 µM
  TGI: 14 µM
[25]
  GI50: 2.6 µM
  TGI: 10.2 µM
[26]
  GI50: 7.26 µM
  TGI: 42.6 µM
[27]
  GI50: 5.84 µM
  TGI: > 42.7 µM
[28]
  GI50: 3.32 µM
  TGI: 13 µM
[29]
  GI50: 8.55 µM
  TGI: 22.9 µM
[30]
  GI50: 2.06 µM
  TGI: 12.8 µM
[31]
  GI50: 10.9 µM
  TGI: 41.9 µM
[32]
  GI50: 10.6 µM
  TGI: 73.7 µM
[33]
  GI50: 5.32 µM
  TGI: 20.9 µM
[34]
  GI50: 2.36 µM
  TGI: 23.5 µM
[35]
  GI50: 5.21 µM
  TGI: 22 µM
[36]
  GI50: 3.63 µM
  TGI: 15.9 µM
[37]
  GI50: 4.98 µM
  TGI: > 69.3 µM
[38]
  GI50: 3.68 µM
  TGI: 39.5 µM
[39]
  GI50: 11.7 µM
  TGI: 32.2 µM
[40]
  GI50: 3.42 µM
  TGI: 17.3 µM
[41]
  GI50: 2.19 µM
  TGI: 17.5 µM
[42]
  GI50: 8.93 µM
  TGI: 42.2 µM
[43]
  GI50: 10.9 µM
  TGI: 34.9 µM
[44]
  GI50: 4.39 µM
  TGI: 28.7 µM
[45]
  GI50: 5.18 µM
  TGI: 30.5 µM
[46]
  GI50: 8.1 µM
  TGI: 36.6 µM
[47]
  GI50: 13.2 µM
  TGI: 36.9 µM
[48]
  GI50: 8.42 µM
  TGI: 27.3 µM
[49]
  GI50: 3.12 µM
  TGI: 20.2 µM
[50]
  GI50: 5.33 µM
  TGI: > 51.4 µM
[51]
  GI50: 2.38 µM
  TGI: 14.8 µM
[52]
  GI50: 2.64 µM
  TGI: 7.5 µM
[53]
  GI50: 3.52 µM
  TGI: 21.3 µM
[54]
  GI50: 4.2 µM
  TGI: 54.5 µM
[55]
  GI50: 8.35 µM
  TGI: 27.1 µM
[56]
  GI50: 4.62 µM
  TGI: 18.1 µM
[57]
  GI50: 4.55 µM
  TGI: 24 µM
